# Laboratory results from PubChem BioAssay AID504479 (NMMLSC, 2011).
# Activity calls are given as the source filed them.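 How the source made its calls: active means GFP ratio vs DMSO below 0.65 in a strain, using the primary screen cutoff set for that strain's protein target; inactive means the rest.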
# Assays:
# Test in all cases: GFP reporter expression in TORC1-bypass yeast, mechanism study for yeast TOR pathway modulator project, S. cerevisiae, TORC1 bypass vs wild-type strains (AID 504479)
# Conditions in all cases: fluorescence ratio vs DMSO, at 10 µM
# BY4741 = tested on: BY4741
# YBR084C-A = tested on: YBR084C-A
# YCL025C = tested on: YCL025C
# YCR005C = tested on: YCR005C
# YKL103C = tested on: YKL103C
# YNL142W = tested on: YNL142W
# [1] = RPL19A-GFP in TORC1 bypass strain, stronger effect = lower value
# [2] = AGP1-GFP in TORC1 bypass strain, stronger effect = higher value
# [3] = CIT2-GFP in TORC1 bypass strain, stronger effect = higher value
# [4] = LAP4-GFP in TORC1 bypass strain, stronger effect = higher value
# [5] = MEP2-GFP in TORC1 bypass strain, stronger effect = higher value
SMILES,GFP ratio vs DMSO (BY4741),GFP ratio vs DMSO (YBR084C-A; [1]),GFP ratio vs DMSO (YBR084C-A),GFP ratio vs DMSO (YCL025C; [2]),GFP ratio vs DMSO (YCL025C),GFP ratio vs DMSO (YCR005C; [3]),GFP ratio vs DMSO (YCR005C),GFP ratio vs DMSO (YKL103C; [4]),GFP ratio vs DMSO (YKL103C),GFP ratio vs DMSO (YNL142W; [5]),GFP ratio vs DMSO (YNL142W)
COc1ccc([N+](=O)[O-])c(S(=O)(=O)c2ccccc2)n1,0.896 (inactive),0.924,0.967 (inactive),0.971,1.14 (inactive),0.862,0.792 (inactive),1.33,1.97,0.877,1.03 (inactive)
CCOC(=O)c1c(C)oc2c1c(C(c1cccnc1)N1CCOCC1)c(O)c1ccccc12 (stereo unspecified),1.09 (inactive),1.1,0.914 (inactive),0.642,0.972 (inactive),0.839,1.12 (inactive),1.21,2.09,1.08,1.27 (inactive)
CCSc1nnc(NC(=O)c2ccccn2)s1,0.875 (inactive),0.97,0.972 (inactive),0.987,0.979 (inactive),0.867,0.907 (inactive),1.14,1.2 (inactive),1.06,1.01 (inactive)
Clc1ccc(N=c2ssnc2Cl)cc1,1.09 (inactive),1.08,1.02 (inactive),0.884,0.946 (inactive),1.02,1.25 (inactive),1.29,1.64,1.08,1.04 (inactive)
Cc1ccc(/C=C2/C(=O)ON=C2c2ccccc2)o1,0.941 (inactive),0.962,1 (inactive),0.642,0.87 (inactive),0.898,1.23 (inactive),1.15,1.99,1.21,1.23 (inactive)
Cc1ccc(C(=O)NNC(=S)NC(=O)COc2ccccc2)cc1,1.29 (inactive),1.22,1.27 (inactive),0.914,1.11 (inactive),0.861,0.988 (inactive),1.45,2.49,1.25,1.22 (inactive)
CSC1=NS(=O)(=O)c2c(C)nn(C)c2S1,0.833 (inactive),0.9,0.887 (inactive),0.961,1.01 (inactive),0.826,0.78 (inactive),1.06,1.36 (inactive),0.862,0.972 (inactive)
COc1ccc([N+](=O)[O-])c(S(=O)(=O)c2ccc(Cl)cc2)n1,1.04 (inactive),0.937,0.829 (inactive),0.905,1.18 (inactive),0.761,0.9 (inactive),1.92,2.84,1.01,1.24 (inactive)
O=S(=O)(CCN(CCS(=O)(=O)C(F)(F)F)CC1CCCO1)C(F)(F)F (stereo unspecified),0.958 (inactive),1.07,1.05 (inactive),0.817,0.958 (inactive),1.29,1.41 (inactive),1.2,1.85,0.942,0.986 (inactive)
O=[N+]([O-])c1ccc(S(=O)(=O)c2cccc(C(F)(F)F)c2)nc1,1.03 (inactive),0.969,0.902 (inactive),0.813,1.04 (inactive),0.934,0.976 (inactive),1.63,2.2,1.04,1.52 (inactive)
Cc1ccc(C2=NOC(=O)/C2=C\c2ccc(C)o2)cc1,1.74 (inactive),0.949,1.01 (inactive),0.701,0.907 (inactive),1.1,1.24 (inactive),0.971,1.52,1.49,1.24 (inactive)
CC(C)(C)C(=O)NC(=S)NNC(=O)c1ccc(-c2ccccc2)cc1,1.36 (inactive),1.2,1.25 (inactive),1.03,1.07 (inactive),0.935,1.37 (inactive),1.47,2.48,1.27,1.51 (inactive)
CC(=O)SC(C[N+](=O)[O-])c1cn(C(C)=O)c2ccccc12 (stereo unspecified),0.941 (inactive),1.04,1.18 (inactive),0.739,0.805 (inactive),0.839,0.9 (inactive),1.4,1.8,0.918,0.743 (inactive)
O=C(CCc1ccccc1)NNC(=S)NC(=O)c1ccccc1,1.32 (inactive),1.33,1.31 (inactive),0.882,1.09 (inactive),0.847,1.04 (inactive),1.88,3.08,1.28,1.3 (inactive)
COc1ccc(C(=O)NNC(=S)NC(=O)/C=C/c2cccs2)cc1,1.24 (inactive),1.04,1.27 (inactive),0.916,1.18 (inactive),0.971,1.2 (inactive),1.16,1.72,1,1.15 (inactive)
CC(C)(C)C(=O)C(Cl)C(=O)Nc1ccccc1 (stereo unspecified),0.941 (inactive),0.997,0.885 (inactive),0.833,1.2 (inactive),1.58,1.65,1.5,2.76,0.969,1.24 (inactive)
CCCCC(=O)NNC(=S)NC(=O)c1ccc(C)cc1,1.56 (inactive),1.34,1.27 (inactive),0.974,1.1 (inactive),0.942,1.17 (inactive),2.03,3.37,1.24,1.22 (inactive)
Cc1ccc(S(=O)(=O)c2ccc([N+](=O)[O-])cn2)cc1,0.941 (inactive),0.938,0.929 (inactive),0.813,1.11 (inactive),0.861,1.05 (inactive),1.67,2.26,0.948,1.29 (inactive)
CC1=NN(c2ccccc2)C(=O)C1C(c1ccccc1[N+](=O)[O-])C(C#N)C#N (stereo unspecified),0.941 (inactive),1.04,1.09 (inactive),0.682,0.947 (inactive),1.15,1.13 (inactive),1.44,2.26,0.948,1.03 (inactive)
O=[N+]([O-])c1cc(Cl)c2cccnc2c1O,0.755 (inactive),0.937,1.04 (inactive),0.738,0.999 (inactive),0.67,0.937 (inactive),1.17,1.52,0.964,0.937 (inactive)
Cc1ccc(S(=O)(=O)c2ncccc2[N+](=O)[O-])cc1,1.09 (inactive),0.99,1.04 (inactive),0.888,0.84 (inactive),0.847,0.688 (inactive),1.5,1.82,1.01,0.788 (inactive)
